# Test system: Circulating human tumour cells (CTC's) characterised by EpCAM
# Assay: in vitro vitality reduction of circulating tumour cells from a blood sample of a prostate carcinoma patient
# Type: cell-based
# Conditions: CTCs of a prostate carcinoma patient
# Source text: A patient, suffering from a prostate carcinoma, was examined by checking a blood sample. Circulating human tumour cells (CTC's) characterised by EpCAM and additional cell surface markers have been used. The CTC's have been tested with different anti-cancer drugs. […] Furthermore, the positive effects could be shown to be dose dependent.
structure (smiles),measurement,setting,value
C[C@H]1[C@H](OC(=O)CCC(=O)O)O[C@@H]2O[C@@]3(C)CC[C@H]4[C@H](C)CC[C@@H]1[C@@]24OO3 [Artesunat],Concentration- and time-dependent specific in vitro vitality reduction (%) in the presence of eutherapeutic concentrations,"eutherapeutic concentration, not specified",60%
"COc1cc(/C=C/C(=O)CC(=O)/C=C/c2ccc(O)c(OC)c2)ccc1O [Curcumin, curcumin]",Concentration- and time-dependent specific in vitro vitality reduction (%) in the presence of eutherapeutic concentrations,450 mg,80%
"C=C1CC[C@H](O)C/C1=C/C=C1\CCC[C@]2(C)[C@@H]([C@H](C)CCCC(C)(C)O)CC[C@@H]12 [Example 25-OH-D3, 25-OH-D3]",Concentration- and time-dependent specific in vitro vitality reduction (%) in the presence of eutherapeutic concentrations,100 ng/ml,25%
same,Concentration- and time-dependent specific in vitro vitality reduction (%) in the presence of eutherapeutic concentrations,200 ng/ml,30%
CCC(=O)C(CC(C)N(C)C)(c1ccccc1)c1ccccc1 (centres unmarked) [Methadone],Concentration- and time-dependent specific in vitro vitality reduction (%) in the presence of eutherapeutic concentrations,3 × 15 drops,30%
